Experimental data taken from publication PMC7236921, “γ-Secretase modulators exhibit selectivity for modulation of APP cleavage but inverse γ-secretase modulators do not” (Alzheimer's Research & Therapy, 2020).

Legend:
[1] = biological target: T1, PS2 γ-secretase (PS2 membrane, PSEN1−/− PSEN2+/+) (Homo sapiens, UniProt P49810); experiment: cell-free cleavage of rC100sub, IP-MS of Abeta; type: biochemical; conditions: inverse modulator (iGSM), 100 μM; substrate rC100sub (APP C100); pH 6.5, 37 °C, 2 h
T1 construct: endogenous complex in CHAPSO-solubilized membrane of HEK 293T cells expressing only PS2; with Nicastrin; Gamma-secretase subunit APH-1A; Gamma-secretase subunit PEN-2

[2] = biological target: T2, PS1 γ-secretase (PS1 membrane, PSEN1+/+ PSEN2−/−) (Homo sapiens, UniProt P49768); experiment: cell-free cleavage of rC100sub, IP-MS of Abeta; type: biochemical; conditions: inverse modulator (iGSM), 100 μM; substrate rC100sub (APP C100); pH 6.5, 37 °C, 2 h
T2 construct: endogenous complex in CHAPSO-solubilized membrane of HEK 293T cells expressing only PS1; with Nicastrin; Gamma-secretase subunit APH-1A; Gamma-secretase subunit PEN-2

Q: For `CC(C)OC(=O)C(C)(C)Oc1ccc(C(=O)c2ccc(Cl)cc2)cc1` [fenofibrate], which “percentage change of Aβ38” value [1] is on record?
A: The value was “iGSMs had an enhanced response when compared to WT”.

Q: And the “percentage change of Aβ38” value [2]?
A: The value was “the iGSM treatment resulted in only slight changes in the peptides produced”.
